Measurements reported in patent US20080167290A1, “Combination of a Serotonin Reuptake Inhibitor and Amoxapine” (H. Lundbeck A/S, priority 2003, published 2008).
Where two headings read alike, the source gives them in different places.

Tested on: 5-HT levels in ventral hippocampus
Conditions: for effects on hippocampal 5-HT levels: amoxapine alone, rat ventral hippocampus microdialysis
Experimental: Male albino rats of a Wistar-derived strain (285-320 g; Harlan, Zeist, The Netherlands) were used for the experiments. Upon surgery, rats were housed individually in plastic cages (35×35×40 cm), and had free access to food and water. Animals were kept on a 12 h light schedule (light on 7:00 a.m.). The experiments are concordant with the declarations of Helsinki and were approved by the animal care committee of the faculty of mathematics and natural science of the University of Groningen.
Preceding surgery rats were anaesthetised using isoflurane (O2/N2O; 300/300 ml/min). Lidocaine-HCl, 10% (m/v) was used for local anaesthesia.
Rats were allowed to recover for at least 24 h. […] 15 minute microdialysis samples were collected in HPLC vials containing 7.5 μl 0.02 M acetic acid for serotonin analysis.
Twenty-μl microdialysate samples were injected via an autoinjector (CMA/200 refrigerated microsampler, CMA, Sweden) onto a 100×2.0 mm C18 Hypersil 3 μm column (Bester, Amstelveen, the Netherlands) and separated with a mobile phase consisting of 5 g/L di-ammoniumsulfate, 500 mg/L EDTA, 50 mg/L heptane sulphonic acid, 4% methanol v/v, and 30 μl/L of triethylamine, pH 4.65 at a flow of 0.4 ml/min (Shimadzu LC-10 AD). 5-HT was detected amperometrically at a glassy carbon electrode at 500 mV vs Ag/AgCl (Antec Leyden, Leiden, The Netherlands). The detection limit was 0.5 fmol 5-HT per 20 μl sample (signal to noise ratio 3).
Four consecutive microdialysis samples with less then 20% variation were taken as control and set at 100%. […] Treatments were compared versus controls using two way analysis of variance (ANOVA) for repeated measurements, followed by Student Newman Keuls test. […] Level of significance level was set at p<0.05.

In the case of Clc1ccc2c(c1)C(N1CCNCC1)=Nc1ccccc1O2 [amoxapine], the “effects on hippocampal 5-HT levels” value (1 μmol/kg s.c., P=0.08) was “did not induce any significant effects”, the “effects on hippocampal 5-HT levels” value (10 μmol/kg s.c., P=0.47) was “did not induce any significant effects” and the “response in the 5-HT microdialysis model” value (summary statement, dose not stated, compared to the serotonin reuptake inhibitor alone) was “no significant effect”.
